Patent publication US20230098646A1, “NEUROMODULATION DEVICES AND RELATED METHODS” (Massachusetts Institute of Technology, priority 2021, published 2023)
Where a SMILES comes first, the peptide text is derived from it. The star is where a group is joined. Cbz = O=C(OCc1ccccc1)*

Columns and labels:
[1] = tested on: C2C12 cells; assay: Extract exposure test (ISO), cell viability by ATP quantitation (CellTiter-Glo); format: cell-based; settings: 40 um MG-132, positive control, vs negative control (p<0.05)
Description: An extract exposure test following ISO norms was performed to evaluate the toxicity of the neuroprosthesis material. 0.2 gm of material were added to 1 mL of DMEM culture medium and stirred at 37° C. for 24 hours or 7 days to create the extract samples. 100 uL of fetal bovine serum were added to 900 uL aliquots of the samples and used to treat C2C12 cells plated in a 96 well plate in triplicate. A negative control of untreated media and positive control of media containing 40 um MG-132, a small molecule proteasome inhibitor, were also performed. At 24 and 72 hours, cell viability was measured through quantitation of ATP using CellTiter-Glo (Promega) using a Tecan M1000Pro.

[2] = tested on: lower esophageal sphincter; assay: Glucagon infusion through the neuroprosthesis microfluidic channel into the lower esophageal sphincter, intraluminal manometry; format: in vivo, swine
Description: The neuroprosthesis' distal tip was implanted in the lower esophageal sphincter and glucagon was infused through the microfluidic channel. This chemical stimulation yielded relaxation of the sphincter within 10-20 s. […] Muscle tone returned within 1.5 minutes whereupon repeated infusions led to relaxation. Injection of saline produced no measurable effect and served as negative a control.
Following validation of the safety, efficacy, and biocompatibility, the prosthesis was implanted Yorkshire swine (n=2, 94 kg & 70 kg). The optimized electrical stimulation parameters were programmed into the controller. A pump primed the microfluidic channel and injected 5mg/mL glucagon per neurochemical stimulus.
To characterize and validate the neuroprosthesis' ability to sense and create artificial peristalsis, a fluoroscopic pellet study was conducted. Barium sulfate (Bracco E-Z-HD Barium Sulfate for Suspension (98% w/w), Patterson Veterinary) was mixed with a sodium alginate solution (Sigma) in a 50:50 volume by weight ratio. After 10 minutes of sonication at 30 deg C., the suspension was pipetted into a custom silicone mold sized for a triple zero capsule. After 24 hours, these pellets were hydrated with a 2M CaCl2 solution for at least 2 hours and rinsed with PBS for 72 hours. They were then placed in the esophagus using the endoscope. Stimulation and sensing were performed by the neuroprosthesis and the pellet was radiographically visualized using fluoroscopy. Further, intraluminal manometry studies were performed (n=4, swine) to characterize changes in esophageal reflexes and pressures following tool-based tissue manipulation and neuroprosthesis implantation as well as capture artificial peristalsis created by the neuroprosthesis. An intraluminal manometer (Endoflip, Medtronic) was inserted into the middle and lower esophagus using an overtube to profile distensibility, pressure, pattern of motility and minimal diameter of the esophagus. […] Electromyography was recorded from the electrodes during stimulation and rest periods. […]

Molecule | cell viability [1] | time to relaxation of the sphincter ([2]; after glucagon infusion through microfluidic channel, distal tip in lower esophageal sphincter) | time until muscle tone returned ([2]; after glucagon infusion, repeated infusions again led to relaxation) | relaxation of the LES on glucagon infusion ([2]; microfluidic infusion by the neuroprosthesis, 5mg/mL glucagon per stimulus, tonic LES at rest)
CC(C)C[C@@H](C=O)NC(=O)[C@H](CC(C)C)NC(=O)[C@H](CC(C)C)NC(=O)OCc1ccccc1 [MG-132] (Cbz-Leu-Leu-Leu-aldehyde) | significantly decreased cell viability |  |  | 
glucagon |  | 10 to 20 s | ≤ 1.5 min | yielded relaxation of this LES
